According to PMC9424906 (Frontiers in Pharmacology, 2022):
Converted amounts (≈) assume the structure as drawn. “Also recorded” adds a separate entry of the source. Like-named read-outs stand apart in the source and are kept apart here.

Assays:
[1] = 7-days dose range finding study in rats; conditions: oral, 7 days, 1,500 mg/kg/day
[2] = system: OAT1; conditions: cited from earlier work
[3] = in vitro; format: in vitro ADME; conditions: PAMPA, pH 7.4
Method: Stirring double-sink PAMPA (patented by Pion Inc.) was employed to determine permeability. Assay was performed as described previously ([Sun et al., 2017]). The PAMPA lipid membrane, which consisted of an artificial membrane of a proprietary lipid mixture and dodecane (Pion Inc.), was optimized to predict cell membrane permeability. This artificial membrane was immobilized on a plastic matrix of a 96-well “donor” filter plate placed below a 96-well “acceptor” plate. Both “donor” and “acceptor” wells were buffered to pH 7.4. […] Permeability calculations were performed using Pion Inc. software and were expressed in the unit of 10^–6 cm/s.

[4] = system: SARS-CoV-2 (USA_WA1/2020); assay: SARS-CoV-2 cytopathic effect (CPE) assay in Vero E6 cells; format: cell-based; conditions: Severe acute respiratory syndrome coronavirus 2, Vero C1008; Vero E6 cells, MOI 0.002, 72 h, n = 2; read-out: EC50, inhibition of SARS-CoV-2 CPE
[5] = system: MDR1; assay: in vitro; conditions: human, Caco-2, pH 7.4
[6] = in vitro; conditions: human, Caco-2, pH 7.4
[7] = system: BCRP; assay: in vitro; conditions: human, Caco-2, pH 7.4
[8] = Pharmacokinetics in Sprague Dawley rats; format: in vivo; conditions: male, rat; for Vd / clearance / AUC(0-inf) / Cmax / Tmax / bioavailability: in vivo; for Vd / clearance: iv; for AUC(0-inf) / Cmax / Tmax / bioavailability / half-life: po; for half-life: plasma, Rat
Method: Adult male C57BL/6 mice and Sprague Dawley rats were purchased from Charles River Laboratory (Wilmington, MA). PK studies for mice and rats were conducted at NIH animal facility (Bethesda, MD). In-life dog and monkey PK studies were conducted at Absorption System (San Diego, CA) and Frontage Labs (Concord, OH), respectively. Dogs and monkeys were fasted overnight prior to dose administrations. All experimental procedures were reviewed and approved by the Animal Care and Use Committee (ACUC) of the NIH Division of Veterinary Resources (DVR) or CRO labs for in-life studies.
Male Sprague–Dawley rats (n = 3 or 4 per treatment group, ∼ 343–375 g) were dosed in IV and PO dosing groups: 1 and 5 mg/kg IV, and 10, 30 and 100 mg/kg PO, respectively. Double cannulated rats (one catheter for IV dosing and another one for sampling) were used. Plasma samples were collected from jugular vein over 24 h. In bile duct cannulated (BDC) rat group, a single IV dose of 2 mg/kg was administered to three rats. Rat urine and bile samples were collected for the pre-dose, 0–4 h, 4–8 h, and 8–24 h time periods for BDC rats.
Blood samples from all groups and species were collected in K2EDTA tubes and stored on wet ice pending processing. Blood was centrifuged at 2200 g at 4°C for 10 min to isolate plasma. All samples were stored at -80°C until analysis.
Phoenix WinNonlin, version 8.1 (Certara, St. Louis, MO), was used to perform PK analysis with the non-compartmental approach (Models 200 and 201 for PO and IV datasets). The area under the plasma concentration vs. time curve (AUC) was calculated using the linear trapezoidal method. The terminal rate constant (λ) was obtained from the slope of at least three data points of the apparent terminal phase of the log-linear plasma concentration vs. time curve when available. AUC0–∞ was estimated as the sum of the AUC0–t (where t is the time of the last measurable concentration) and Ct/λ. The apparent terminal half-life (t½) was calculated as 0.693/λ. Bioavailability (F) was calculated using ratios of dose normalized AUC (AUC/Dose) obtained from PO and IV PK studies.

[9] = system: EpiAirway human tracheobronchial epithelial tissues
[10] = in vitro; format: in vitro ADME; conditions: both sexes, human, plasma
Method: Plasma protein binding experiments were carried out in mixed-gender human plasma, male Sprague-Dawley rat plasma, male CD-1 plasma, male Beagle dog plasma, and male Cynomolgus monkey plasma (BioIVT) using a Pierce Rapid Equilibration Dialysis (RED) device. […] Blank phosphate-buffered saline (PBS) (500 μL) was added to each corresponding receiver chamber. After 4 h of incubation (with shaking at 37°C), both sides were aliquoted, and matrix was normalized. Samples were centrifuged at 1000 g for 10 min after adding two volumes of ACN with IS. Supernatants were diluted 1:1 with water and analyzed with LC-MS/MS.
Plasma Protein binding was calculated as follows:
% Bound = [(PARR in Donor–PARR in Receiver)/(PARR in Donor)] × 100.
PARR = peak area response ratio to internal standard, including applicable dilution factors.

[11] = system: SARS-CoV-2 (2019-nCoV/USA-WAl/2020); format: cell-based; conditions: EpiAirway 3D HAE tissue model
[12] = system: OATP1B3; conditions: cited from earlier work
[13] = system: MATE2-K; conditions: cited from earlier work
[14] = physchem; conditions: for solubility thermodynamic: thermodynamic from solid

For `N#C[C@@]1(c2ccc3c(N)ncnn23)O[C@H](CO)[C@@H](O)[C@H]1O` [GS-441524], which “Tolerability at maximum feasible dose” value [1] is on record?
The value was “well tolerated”.

And the “Substrate of OAT1” value [2]?
Its value is “not a substrate”.

What about the Papp at 30 min [3] of the same molecule?
Its Papp at 30 min is < 1 ×10⁻⁶ cm/s.

And the EC50 [4]?
Its EC50 is 1860 nM.

What about the Papp A→B at 2 h, 5 µM [5] of the same molecule?
The Papp A→B at 2 h, 5 µM was 0.16 ×10⁻⁶ cm/s.

What about the Papp B→A at 2 h, 5 µM [5] of the same molecule?
The Papp B→A at 2 h, 5 µM was 0.79 ×10⁻⁶ cm/s.

What about the Papp A→B at 2 h, 5 µM [6] of the same molecule?
Its Papp A→B at 2 h, 5 µM is 0.099 ×10⁻⁶ cm/s.

What about the Papp B→A at 2 h, 5 µM [6] of the same molecule?
The Papp B→A at 2 h, 5 µM was 0.971 ×10⁻⁶ cm/s.

What about the Papp A→B at 2 h, 5 µM [7] of the same molecule?
The Papp A→B at 2 h, 5 µM was 0.229 ×10⁻⁶ cm/s.

And the Papp B→A at 2 h, 5 µM [7]?
The Papp B→A at 2 h, 5 µM was 0.267 ×10⁻⁶ cm/s.

What about the Vd ([8]; 1 mg/kg) of the same molecule?
Its Vd is 2.6 L/kg.

And the clearance ([8]; 1 mg/kg)?
Its clearance is 31 mL/min/kg.

And the Vd ([8]; 5 mg/kg)?
Its Vd is 2.2 ± 0.3 L/kg.

What about the clearance ([8]; 5 mg/kg) of the same molecule?
Its clearance is 25 ± 1.6 mL/min/kg.

And the AUC(0-inf) ([8]; 10 mg/kg)?
The AUC(0-inf) was 2170 ng·h/mL.

What about the Cmax ([8]; 10 mg/kg) of the same molecule?
The Cmax was 193 ± 57 ng/mL.

What about the Tmax ([8]; 10 mg/kg) of the same molecule?
The Tmax was 3.8 ± 2.4 h.

And the bioavailability ([8]; 10 mg/kg)?
The bioavailability was 33 ± 9.8%.

What about the AUC(0-inf) ([8]; 30 mg/kg) of the same molecule?
Its AUC(0-inf) is 4220 ng·h/mL.

And the Cmax ([8]; 30 mg/kg)?
The Cmax was 326 ± 77 ng/mL.

What about the Tmax ([8]; 30 mg/kg) of the same molecule?
The Tmax was 3.8 ± 2.4 h.

And the bioavailability ([8]; 30 mg/kg)?
The bioavailability was 21 ± 3.8%.

What about the AUC(0-inf) ([8]; 100 mg/kg) of the same molecule?
Its AUC(0-inf) is 9560 ng·h/mL.

What about the Cmax ([8]; 100 mg/kg) of the same molecule?
Its Cmax is 825 ± 91 ng/mL.

And the Tmax ([8]; 100 mg/kg)?
The Tmax was 2.3 ± 1.3 h.

And the bioavailability ([8]; 100 mg/kg)?
Its bioavailability is 15 ± 3.2%.

And the half-life ([8]; 10 mg/kg, PO 10 mg/kg, read-out: t1/2 (converted))?
The half-life was 3.4 ± 0.2 h.

And the half-life ([8]; 30 mg/kg, PO 30 mg/kg, read-out: t1/2 (converted))?
Its half-life is 3.4 ± 0.2 h.

And the half-life ([8]; 100 mg/kg, PO 100 mg/kg, read-out: t1/2 (converted))?
Its half-life is 4.2 ± 1.8 h.

And the half-life ([8]; 100 mg/kg, PO 10, 30 and 100 mg/kg, read-out: Half-life (t1/2))?
Its half-life is 3.4 to 4.2 h.

And the Cytotoxicity [9]?
Its Cytotoxicity is “did not exhibit any cytotoxicity”.

And the fraction unbound at 4 h, 10 µM [10]?
Its fraction unbound at 4 h, 10 µM is ~0.78.

What about the “Potency on viral titer (TCID50) at 24 h” value ([11]; 24 h) of the same molecule?
The value was “lower potency than EIDD-2801”.

And the “Viral titer (TCID50)” value ([11]; 24 h and 96 h after infection)?
The value was “significantly inhibited the viral infection; also recorded: reduced viral load”.

And the “Substrate of OATP1B3” value [12]?
The value was “not a substrate”.

What about the “Substrate of MATE2-K” value [13] of the same molecule?
Its value is “not a substrate”.

And the solubility thermodynamic ([14]; pH 1.6, simulated gastric fluid)?
The solubility thermodynamic was > 1000 µg/mL.

And the solubility thermodynamic ([14]; pH 2, aqueous buffer)?
Its solubility thermodynamic is > 1000 µg/mL.

What about the solubility ([14]; pH 5) of the same molecule?
The solubility was 35 to 52 µg/mL (≈ 120 to 179 µM).

And the solubility thermodynamic ([14]; pH 5, aqueous buffer)?
The solubility thermodynamic was 52 µg/mL (≈ 179 µM).

And the solubility thermodynamic ([14]; pH 5.8, fessif)?
Its solubility thermodynamic is 52 µg/mL (≈ 179 µM).

And the solubility thermodynamic ([14]; pH 6.5, fassif)?
The solubility thermodynamic was 35 µg/mL (≈ 120 µM).

And the solubility thermodynamic ([14]; pH 7.4, aqueous buffer)?
Its solubility thermodynamic is 47 µg/mL (≈ 161 µM).
